In patent publication US20200369630A1, “HERBICIDALLY ACTIVE 3-PHENYL-5-TRIFLUOROMETHYLISOXAZOLINE-5-CARBOXAMIDES OF CYCLOPENTYLCARBOXYLIC ACIDS AND ESTERS” (Bayer Aktiengesellschaft, priority 2017, published 2020):

Key:
Assay in all cases: Post-emergence herbicidal action
Assay type in all cases: in vivo
[1] = tested on: DIGSA; details: Table C3, post-emergence, 320 g/ha, rated visually after about 3 weeks
Description: (§1) Seeds of monocotyledonous and dicotyledonous weeds and crop plants are placed in sandy loam in plastic or wood-fiber pots, covered with soil and cultivated in a greenhouse under controlled growth conditions. 2 to 3 weeks after sowing, the test plants are treated at the one-leaf stage. The compounds of the invention, formulated in the form of wettable powders (WP) or as emulsion concentrates (EC), are then sprayed onto the green parts of the plants as aqueous suspension or emulsion with addition of 0.5% additive at a water application rate of […] (converted). After the test plants had been kept in the greenhouse under optimum growth conditions for about 3 weeks, the activity of the preparations is rated visually in comparison to untreated controls. For example, 100% activity=the plants have died, 0% activity=like control plants.

[2] = tested on: ALOMY: Alopecurus myosuroides; details: rated visually after about 3 weeks
Description: as §1, with “[table] Seeds” for “Seeds”

[3] = tested on: VIOTR: Viola tricolor; details: Table C3, post-emergence, 320 g/ha, rated visually after about 3 weeks
Description: as §1, with “[table] Seeds” for “Seeds”

[4] = tested on: HORMU: Hordeum murinum; details: rated visually after about 3 weeks
Description: as §1, with “[table] Seeds” for “Seeds”

[5] = tested on: AVEFA: Avena fatua; details: rated visually after about 3 weeks
Description: as §1, with “[table] Seeds” for “Seeds”

[6] = tested on: SETVI: Setaria viridis; details: Table C3, post-emergence, 320 g/ha, rated visually after about 3 weeks
Description: as §1, with “[table] Seeds” for “Seeds”

[7] = tested on: POLCO: Polygonum convolvulus; details: rated visually after about 3 weeks
Description: as §1, with “[table] Seeds” for “Seeds”

[8] = tested on: LOLRI: Lolium rigidum; details: rated visually after about 3 weeks
Description: as §1, with “[table] Seeds” for “Seeds”

[9] = tested on: VERPE: Veronica persica; details: rated visually after about 3 weeks
Description: as §1, with “[table] Seeds” for “Seeds”

[10] = tested on: ECHCG: Echinochloa crus-galli; details: rated visually after about 3 weeks
Description: as §1, with “[table] Seeds” for “Seeds”

[11] = tested on: AMARE: Amaranthus retroflexus; details: rated visually after about 3 weeks
Description: as §1, with “[table] Seeds” for “Seeds”

[12] = tested on: STEME: Stellaria media; details: Table C2, post-emergence, dosage 320 (0.32 kg of active substance per hectare), rated visually after about 3 weeks
Description: as §1, with “[table] Seeds” for “Seeds”

[13] = Table C3, post-emergence, 320 g/ha
[14] = Table C2, post-emergence, dosage 320 (0.32 kg of active substance per hectare)

Row | Structure (SMILES) | Herbicidal action against [%] DIGSA [1] [%] | Herbicidal action against [%] ALOMY [2, 13] [%] | Herbicidal action against [%] VIOTR [3] [%] | Herbicidal action against [%] HORMU [4, 13] [%] | Herbicidal action against [%] AVEFA [5, 13] [%] | Herbicidal action against [%] SETVI [6] [%] | Herbicidal action against [%] POLCO [7, 13] [%] | Herbicidal action against [%] LOLRI [8, 13] [%] | Herbicidal action against [%] VERPE [9, 13] [%] | Herbicidal action against [%] ECHCG [10, 13] [%] | Herbicidal action against [%] AMARE [11, 13] [%] | Herbicidal action against [%] ALOMY [2, 14] [%] | Herbicidal action against [%] HORMU [4, 14] [%] | Herbicidal action against [%] AVEFA [5, 14] [%] | Herbicidal action against [%] POLCO [7, 14] [%] | Herbicidal action against [%] LOLRI [8, 14] [%] | Herbicidal action against [%] VERPE [9, 14] [%] | Herbicidal action against [%] ECHCG [10, 14] [%] | Herbicidal action against [%] AMARE [11, 14] [%] | Herbicidal action against [%] STEME [12] [%]
1 | COC(=O)C1CCC(NC(=O)C2(C(F)(F)F)CC(c3cc(C)cc(F)c3)=NO2)C1 (mixture of isomers) [Example I-537] | 90 | 90 | 100 | 80 | 90 | 90 | 90 | 90 | 100 | 100 | 100 | – | – | – | – | – | – | – | – | –
2 | CCOC(=O)C1CCC(NC(=O)C2(C(F)(F)F)CC(c3cc(C)cc(F)c3)=NO2)C1 (mixture of isomers) [Example I-543] | – | – | – | – | – | – | – | – | – | – | – | 90 | 80 | 100 | 100 | 90 | 90 | 90 | 100 | 80
3 | Cc1cc(F)cc(C2=NOC(C(=O)NC3CCC(C(=O)OCCCl)C3)(C(F)(F)F)C2)c1 (mixture of isomers) [Example I-574] | 80 | 100 | 80 | 80 | 100 | 90 | 80 | 90 | 90 | 90 | 100 | – | – | – | – | – | – | – | – | –
4 | Cc1cc(F)cc(C2=NOC(C(=O)NC3CCC(C(=O)OCC(F)(F)F)C3)(C(F)(F)F)C2)c1 (mixture of isomers) [Example I-580] | 90 | 90 | 100 | 90 | 100 | 90 | 80 | 90 | 90 | 80 | 90 | – | – | – | – | – | – | – | – | –
5 | COC(=O)C1CCC(NC(=O)C2(C(F)(F)F)CC(c3cc(C)cc(Cl)c3)=NO2)C1 (mixture of isomers) [Example I-802] | – | – | – | – | – | – | – | – | – | – | – | 90 | 80 | 100 | 100 | 90 | 90 | 80 | 90 | 90
6 | O=C(O)[C@@H]1CC[C@H](NC(=O)[C@@]2(C(F)(F)F)CC(c3cc(F)cc(F)c3)=NO2)C1 [Example I-11, (1R,3S)-3-({[(5R)-3-(3,5-difluorophenyl)-5-(trifluoromethyl)-4,5-dihydro-1,2-oxazol-5-yl]carbonyl}amino)cyclopentanecarboxylic acid] | – | – | – | – | – | – | – | – | – | – | – | 80 | 80 | 90 | 80 | 90 | 80 | 80 | 80 | 90
7 | CCOC(=O)[C@H]1CC[C@H](NC(=O)[C@@]2(C(F)(F)F)CC(c3cc(F)cc(F)c3)=NO2)C1 [Example I-42] | – | – | – | – | – | – | – | – | – | – | – | 80 | 90 | 90 | 80 | 90 | 80 | 80 | 80 | 90
8 | CCCOC(=O)[C@@H]1CC[C@H](NC(=O)[C@@]2(C(F)(F)F)CC(c3cc(F)cc(F)c3)=NO2)C1 [Example I-53] | – | – | – | – | – | – | – | – | – | – | – | 100 | 100 | 100 | 100 | 100 | 90 | 100 | 90 | 100
9 | CC(C)OC(=O)[C@@H]1CC[C@H](NC(=O)[C@@]2(C(F)(F)F)CC(c3cc(F)cc(F)c3)=NO2)C1 [Example I-67] | – | – | – | – | – | – | – | – | – | – | – | 100 | 100 | 100 | 90 | 100 | 90 | 90 | 90 | 100
10 | CC(C)(C)OC(=O)[C@@H]1CC[C@H](NC(=O)[C@@]2(C(F)(F)F)CC(c3cc(F)cc(F)c3)=NO2)C1 [Example I-95] | – | – | – | – | – | – | – | – | – | – | – | 90 | 90 | 100 | 90 | 100 | 80 | 80 | 80 | 90
11 | O=C(OCCCl)[C@@H]1CC[C@H](NC(=O)[C@@]2(C(F)(F)F)CC(c3cc(F)cc(F)c3)=NO2)C1 [Example I-109, 2-chloroethyl-(1R,3S)-3-({[(5R)-3-(3,5-difluorophenyl)-5-(trifluoromethyl)-4,5-dihydro-1,2-oxazol-5-yl]carbonyl}amino)cyclopentanecarboxylate] | – | – | – | – | – | – | – | – | – | – | – | 90 | 90 | 90 | 80 | 80 | 80 | 90 | 80 | 90
12 | O=C(OCC(F)(F)F)[C@@H]1CC[C@H](NC(=O)[C@@]2(C(F)(F)F)CC(c3cc(F)cc(F)c3)=NO2)C1 [Example I-123] | – | – | – | – | – | – | – | – | – | – | – | 90 | 90 | 90 | 90 | 100 | 80 | 80 | 80 | 90
